Results from patent US20240400998A1, “BLASTOCYST-LIKE CELL AGGREGATE AND METHODS” (IMBA - INSTITUT FÜR MOLEKULARE BIOTECHNOLOGIE GMBH, priority 2021, published 2024).
“Also recorded” adds a separate entry of the source.

What was measured:
Type in all cases: cell-based, human
[1] = system: endometrial cells (open-faced endometrial layer, OFEL); assay: qRT-PCR of window-of-implantation markers in endometrial cells (OFELs); details: for expression of the gene PAEP (marker of the WOI): endometrial cells, Wnt inhibition
Protocol: (§1) Endometrial organoids were passaged as described in the previous section. The dissociated cells were resuspended in Matrigel supplemented with Y-27632 (10 μM), cell suspension was deposited in 48-well plates and were cultured in endometrial expansion medium for 2 days. The organoids were stimulated first with E2 (10 nM, Sigma-Aldrich, E2758) for 2 days, followed by the mixture of E2 (10 nM), P4 (1 μM, Sigma-Aldrich, P8783), and CAMP (250 μM, Biolog, B 007) with or without XAV939 (10 µM) (EPC or EPCX respectively) for 4 days. For OFELs culture, organoids were recovered from the matrigel droplets with ice-cold DMEM/F12 and mechanical pipetting. The organoids were dissociated using TrypLE and mechanically triturated to generate single cells and seeded at the density of 3 to 3.5×10^4 cells per well into a 96-well glass bottom plate (Cellvis, P96-1.5H-N) and cultured for 2-3 days with stimulation. For contraceptive treatment, levonorgestrel (LNG) (10 μM, Sigma-Aldrich, PHR1850) was added every day to the medium two days after hormonal stimulation and continued until the end of experiment.
RNA was extracted using the RNeasy mini kit (Qiagen, 74106) and cDNA synthesis was performed using the Superscript III (Invitrogen, 18080093) enzyme. qPCR reactions were performed using GoTaq® qPCR Master Mix (Promega, A6001) on CFX384 Touch Real-Time PCR Detection System (Bio-rad). Quantification was performed using Microsoft Office Excel by applying the comparative Cycle threshold (Ct) method. Relative expression levels were normalized to GAPDH.

naive hPSC aggregates = assay: Induction of blastoids and trophospheres from naive hPSC aggregates in microwell arrays (yield counted by morphology); details: for effect on blastoid formation / yield of blastoids: naive hPSC aggregates in PALY medium complemented with the molecule every day, 0 to 96 hours; for morphology of hPSC aggregates upon stimulation: stimulation of hPSC aggregates with LPA or NAEPA; for formation of blastoids versus trophospheres: 3 μM SC144 in PALLY medium for 4 days (0 to 96 hours)
Protocol: Naive hPSCs or primed hPSCs cultures were treated with Accutase (Biozym, B423201) at 37° C. for 5 min, followed by gentle mechanical dissociation with a pipette. After centrifugation, the cell pellet was resuspended in PXGL medium, supplemented with Y-27632 (10 μM, MedChemExpress, HY-10583). To exclude MEF, the cell suspension was transferred onto gelatin coated plates and incubated at 37° C. for 70 min. After MEF exclusion, the cell number was determined using a Countess™ automated cell counter (Thermo Fisher Scientific) and Trypan Blue staining to assess cell viability. The cells were then resuspended in N2B27 media containing 10 μM Y-27632 (aggregation medium) and 3.0×10^4 cells were seeded onto a microwell array included into a well of a 96-well plate. The cells were allowed to form aggregates inside the microwell for a period ranging from 0 to 24 hours depending on the cell lines and based on their propensity for aggregation. Subsequently, the aggregation medium was replaced with PALLY medium-N2B27 supplemented with PD0325901 (1 μM), A 83-01 (1 μM, MedChemExpress, HY-10432), hLIF (10 ng/ml), 1-Oleoyl lysophosphatidic acid sodium salt (LPA) (500 nM, Tocris, 3854) and Y27632 (10 μM). The PALLY medium was refreshed every 24 hours. After 48 hours, the PALLY medium was replaced with N2B27 medium containing 500 nM LPA and 10 μM Y-27632. At 96 hours, a blastoid is defined based on morphological similarity to B6 staged human blastocyst, as a structure composed of a monolayered cyst with an overall diameter of 150-250 μm comprising one inner cell cluster. We also verified that, beyond the morphology, blastoids form analogs of the three blastocyst cell lineages in the sequential and timely manner of blastocyst development. […] The effect of LPA, NAEPA (Sigma-Aldrich, N0912) and Verteporfin (Selleck Chemicals Llc, S1786) on the yield of blastoid formation was assessed by culturing naive hPSC aggregates in PALY medium complemented with molecules added every day from 0 to 96 hours. The Verteporfin treatment was executed without exposure to the light. The effect of the aPKC inhibitor CRT0103390 (Gift from the laboratory of Kathy Niakan) was assessed by culturing naive hPSC aggregates in PALLY medium complemented with 2 μM CRT0103390 every day from 0 to 96 hours. The formation of trophospheres was induced by culturing naive hPSC aggregates in PALLY medium complemented with 2 μM XMU-MP-1 (Med Chem Express, HY-100526) or 3 μM SC-144 (Axon, 2324) every day from 0 to 96 hours. The BSA concentration was titrated within the range of 0-0.3% for individual cell lines used for the formation of the blastoids and trophospheres.
The phase contrast images were acquired using Thermo Fisher scientific EVOS cell imaging system and inverted wide field microscope Axio VertA1. The number of blastoids or cavitated structures were counted manually for each well. After 96 hours, a blastoid is defined based on the morphological parameters as described in previous sections. The fluorescent images and timelapse images were acquired using Olympus IX83 microscope with Yokogawa W1 spinning disk (Software: CellSense 2.3; camera: Hamamatsu Orca Flash 4.0) or Nikon Eclipse Ti E inverted microscope, equipped with a Yokogawa W1 spinning disc (Software: Visiview 4.5.0.7; camera: Andor Ixon Ultra 888 EMCCD). The confocal images were analyzed and display images were exported using FIJI 1.53k or Bitplane Imaris 9.7.0 softwares. For cell counting, Bitplane Imaris software was used. Cell count parameters were set for size and fluorescence strength of voxels and then overall cell count data was obtained for each image using Imaris's spot function. Note that large cavities in blastoids increase the depth of the imaging field causing poor signal from deeply located cells. Therefore, our counting data in FIG. 8H could be underrepresented values, particularly in the case of trophectoderm cells. The quantification of the percentage of blastoids forming the NR2F2 axis was done manually. […]

[2] = system: Open Face Endometrial Layer (OFEL); assay: In vitro implantation assay: attachment of blastoids or trophospheres onto OFELs; details: for potential of endometrial cells to interact with human blastoids: EPC stimulation combined with the Wnt inhibitor
Protocol: as §1
Confluent OFELs were prepared for the implantation assay at least 2 hours prior to the deposition of blastoids, trophospheres, naive hPSCs or hTSCs aggregates by washing the OFEL two times with DMEM/F12 and adding IVC medium (Xiang, L. et al. Nature 577, 537-542 (2020)). Structures were then transferred onto the OFELs using a mouth pipette under an inverted microscope. After 24-48 hours, the medium was removed, the well was washed with PBS, fixed using 4% formaldehyde for 30 minutes at room temperature and subsequently processed for immunofluorescence staining. The percentage of attached structures was reported as the percentage of total transferred structures.

Cn1ncnc2c(=O)n(C)c(=O)nc1-2 [PKF118-310]
expression of the gene PAEP (marker of the WOI) [1]: increase the expression of the gene PAEP

1-Oleoyl lysophosphatidic acid sodium salt [LPA]
effect on blastoid formation / yield of blastoids (naive hPSC aggregates; sodium salt): increases; also recorded: significantly improved efficiency; also recorded: enhanced blastoid formation | morphology of hPSC aggregates upon stimulation (naive hPSC aggregates): leads to the transition from a solid aggregate of cells to a cystic structure including a single fluid-filled cavity

Oc1nc(-c2ccc(C(F)(F)F)cc2)nc2c1CSCC2 [XAV939]
expression of PAEP, SPP1, LIF and DPP4 (RTqPCR) ([1]; endometrial cells cultured with XAV939): increases the expression of PAEP, SPP1, LIF and DPP4 | expression of the gene PAEP (marker of the WOI) [1]: increase the expression of the gene PAEP | potential of endometrial cells to interact with human blastoids [2]: increases the potential of endometrial cells to interact with human blastoids

LIF: leukemia inhibitory factor, STAT3 agonist
blastoid formation efficiency versus LIF concentration (naive hPSC aggregates; dose dependent effect of LIF): blastoid formation efficiency increased with LIF concentration

NC(=O)c1ccc(-c2nc(-c3ccc4c(c3)OCO4)c(-c3ccccn3)[nH]2)cc1 [SB431542]
blastoid formation with alternative TGF-b inhibitor (naive hPSC aggregates; 1 μM SB431542 for 4 days in combination with PLLY): also work

N-[2-(phosphonooxy)ethyl]-9Z-octadecenamide [NAEPA]
effect on blastoid formation / yield of blastoids (naive hPSC aggregates): increases; also recorded: enhanced blastoid formation | morphology of hPSC aggregates upon stimulation (naive hPSC aggregates): leads to the transition from a solid aggregate of cells to a cystic structure including a single fluid-filled cavity

Verteporfin
formation of a cavity (naive hPSC aggregates; aggregate of hPSCs treated with Verteporfin, 1 μM): totally prevents the formation of a cavity | effect on blastoid formation / yield of blastoids (naive hPSC aggregates): decreases; also recorded: prevented blastoid formation

Cc1ccc(/C=N/NC(=O)c2ccccc2Oc2ccccc2)o1 [PNU-74654]
potential of endometrial cells to interact with human blastoids [2]: increases the potential of endometrial cells to interact with human blastoids

Cc1ccc2nc(NC(=O)CSc3nc4c(c(=O)n3-c3ccccc3)SCC4)sc2c1 [IWP-2]
potential of endometrial cells to interact with human blastoids [2]: increases the potential of endometrial cells to interact with human blastoids

CN1C(=O)c2sccc2N(C)c2nc(Nc3ccc(S(N)(=O)=O)cc3)ncc21 [XMU-MP-1]
formation of trophospheres (naive hPSC aggregates; 2 μM XMU-MP-1 in PALLY medium for 4 days (0 to 96 hours)): results in the formation of trophospheres; also recorded: induces the formation of trophospheres with limited or no epiblast-like cells and hypoblast-like cells; also recorded: yielded trophospheres | attachment of trophospheres to stimulated endometrial cells (OFELs) ([2]; trophospheres formed using 2 μM XMU-MP-1): fail to attach and invade stimulated endometrial cells; also recorded: largely fail to attach and to invade the endometrial layer; also recorded: failed to attach to OFELs

O=C(NNc1nc2cc(F)ccc2n2cccc12)c1cnccn1 [SC144]
formation of blastoids versus trophospheres (naive hPSC aggregates): a decrease in the formation of blastoids and an increase in the formation of trophospheres; also recorded: induces the formation of trophospheres with limited or no epiblast-like cells and hypoblast-like cells; also recorded: yielded trophospheres | formation of blastoids versus trophospheres (naive hPSC aggregates; listed as SC-144): induced the formation of mono-layer cavitated aggregate that does not form an inner cluster of Epi-/Hypo-like cells | maturation of lineage specification of outer trophectoderm cells (naive hPSC aggregates; SC-144 treatment): compromised | attachment of trophospheres to stimulated endometrial cells (OFELs) ([2]; trophospheres formed using 3 μM SC144): fail to attach and invade stimulated endometrial cells; also recorded: largely fail to attach and to invade the endometrial layer; also recorded: failed to attach to OFELs
